IC50 data for 34 compounds are collected here from patent US20100278835A1, “NOVEL COMPOUNDS 660” (ASTRAZENECA UK LIMITED, priority 2009, published 2010).

What is called IC50 is the point on the concentration scale where inhibition reaches its midpoint. Low readings indicate greater potency in that assay, high ones weaker potency in that assay.

The first experiment concerns RSV RSS strain. Description: ELISA assay of antiviral activity against RSV (reduction in RSV protein expression). Particulars: Hep-2 cells infected with RSV RSS strain, multiplicity of infection 0.02, 3 days; concentration required to inhibit RSV protein expression by 50%. Format: cell-based. How it is done:
The antiviral activity of these compounds against RSV was determined in an ELISA assay. […] ELISA assays were set up by seeding 96-well plates with 5×10^3 Hep-2 cells per well in 100 μl DMEM containing 10% FBS for 24 h. Compound dilutions were prepared in 0.5% DMSO and 50 μl/well was added to the assay plates, the plates were incubated at 37° C. in 5% CO2 for one hour. Cells were infected with 50 μl/well RSV RSS strain at a multiplicity of infection of 0.02 and were incubated at 37° C. in 5% CO2 for 3 days. Cells were then fixed and permeabilised with 75%/25% methanol acetone and blocked with 2% Marvel™, 0.05% Tween for one hour. Plates were then incubated in the presence of a 1:4000 dilution of […] polyclonal antibody (Millipore, AB1128) followed by a 1:1000 dilution of rabbit anti-goat, horseradish peroxidase (DAKO, PO449) labelled secondary antibody. The plates were developed with O-phenylenediamine in the presence of hydrogen peroxide. The antiviral activity of the compounds is presented as an IC50, the concentration required to inhibit RSV protein expression by 50%.
“1-[[5-[(3-aminopropylamino)methyl]-1-isopentyl-benzimidazol-2-yl]methyl]-3-cyclopropyl-4H-quinazolin-2-one [Example 32]”: 32 nM corresponded to half-maximal inhibition (IC50).
Still for that read-out and setting: then “1-[[5-(aminomethyl)-1-(4-hydroxybutyl)benzimidazol-2-yl]methyl]-3-cyclopropyl-4H-quinazolin-2-one [Example 25]”, with 1.5 nM; and `CC(C)CCn1c(CN2C(=O)N(C3CC3)C(C)c3ccccc32)nc2cc(C(=N)N)ccc21` (stereo not drawn) [Example 36, 2-[(3-cyclopropyl-4-methyl-2-oxo-4H-quinazolin-l-yl)methyl]-1-isopentyl-benzimidazole-5-carboxamidine], with 8.4 nM; and “3-cyclopropyl-1-[(1-isopentylbenzimidazol-2-yl)methyl]-4,4-dimethyl-quinazolin-2-one [Example 4]”, with 1420 nM.
Turning to “1-[[5-[(3-aminopropylamino)methyl]-1-isopentyl-benzimidazol-2-yl]methyl]-3-methyl-4H-quinazolin-2-one [Example 31]”, the half-maximal inhibitory concentration (IC50) was 23 nM.
The same measure, in the same setting: the figure for `CC(C)CCn1c(CN2C(=O)N(CC3CCCCC3)Cc3ccccc32)nc2cc(CN)ccc21` [Example 19, 1-[[5-(aminomethyl)-1-isopentyl-benzimidazol-2-yl]methyl]-3-(cyclohexylmethyl)-4H-quinazolin-2-one] is 2890 nM; for “1-[[5-(aminomethyl)-1-(4-hydroxybutyl)benzimidazol-2-yl]methyl]-3-(cyclohexylmethyl)-4H-quinazolin-2-one [Example 27]” it is 94 nM.
As for “2-[(3-cyclopropyl-2-oxo-4H-quinazolin-1-yl)methyl]-N′-hydroxy-1-isopentyl-benzimidazole-5-carboxamidine [Example 38]”, the IC50 is 88.9 nM.
Turning to `CC(C)CCn1c(CN2C(=O)N(CCCN3CCCC3)Cc3ccccc32)nc2cc(CN)ccc21` [Example 17, 1-[[5-(aminomethyl)-1-isopentyl-benzimidazol-2-yl]methyl]-3-(3-pyrrolidin-1-ylpropyl)-4H-quinazolin-2-one], inhibition was half-maximal at 13.7 nM (IC50).
Same read-out and setting: the figure for `CC(C)CCN1Cc2ccccc2N(Cc2nc3cc(CN)ccc3n2CCC(C)C)C1=O` [Example 14, 1-[[5-(aminomethyl)-1-isopentyl-benzimidazol-2-yl]methyl]-3-isopentyl-4H-quinazolin-2-one] is 2.1 nM; for “1-[[5-(aminomethyl)-1-(4-hydroxybutyl)benzimidazol-2-yl]methyl]-3-(2-methoxyethyl)-4H-quinazolin-2-one [Example 26]” it is 0.4 nM.

The experiment is the same for the next values; noted with them: human respiratory syncytial virus, 72 h; Hep-2 cells infected with RSV RSS strain, multiplicity of infection 0.02, 3 days; concentration required to inhibit RSV protein expression by 50%.
`CN1Cc2ccccc2N(Cc2nc3cc(CN)ccc3n2CCCCO)C1=O` [Example 24, 1-[[5-(aminomethyl)-1-(4-hydroxybutyl)benzimidazol-2-yl]methyl]-3-methyl-4H-quinazolin-2-one] came in with a half-inhibitory concentration (IC50) of 3.2 nM.
Same read-out and setting: the figure for `CC(C)CCn1c(CN2C(=O)N(CC3CC3)Cc3ccccc32)nc2cc(CN)ccc21` [Example 16, 1-[[5-(aminomethyl)-1-isopentyl-benzimidazol-2-yl]methyl]-3-(cyclopropylmethyl)-4H-quinazolin-2-one] is 5.9 nM; for `CC(C)CCn1c(CN2C(=O)N(C3CC3)C(C)(C)c3ccccc32)nc2cc(/C(N)=N/O)ccc21` [Example 40, 2-[(3-cyclopropyl-4,4-dimethyl-2-oxo-quinazolin-1-yl)methyl]-N′-hydroxy-1-isopentyl-benzimidazole-5-carboxamidine] it is more than 1000 nM; for `CC1(C)c2ccccc2N(Cc2nc3cc(C(=N)N)ccc3n2CCCC(F)(F)F)C(=O)N1C1CC1` [Example 43, 2-[(3-cyclopropyl-4,4-dimethyl-2-oxo-quinazolin-1-yl)methyl]-1-(4,4,4-trifluorobutyl)benzimidazole-5-carboxamidine] it is 18 nM.
Still for that read-out and setting: then `CC(C)CCn1c(CN2C(=O)N(C3CC3)Cc3c2cccc3C(F)(F)F)nc2cc(CN)ccc21` [Example 22, 1-[[5-(aminomethyl)-1-isopentyl-benzimidazol-2-yl]methyl]-3-cyclopropyl-5-(trifluoromethyl)-4H-quinazolin-2-one], with 8.9 nM; and `CC(C)CCn1c(CN2C(=O)N(CC(C)C)Cc3ccccc32)nc2cc(CN)ccc21` [Example 15, 1-[[5-(aminomethyl)-1-isopentyl-benzimidazol-2-yl]methyl]-3-isobutyl-4H-quinazolin-2-one], with 1.9 nM; and `CC(C)CCn1c(CN2C(=O)N(C(C)(C)C)Cc3ccccc32)nc2cc(CN)ccc21` [Example 8, 1-[[5-(aminomethyl)-1-isopentyl-benzimidazol-2-yl]methyl]-3-tert-butyl-4H-quinazolin-2-one], with 16.7 nM.
The same measure, in the same setting: the figure for `CC(C)CCn1c(CN2C(=O)N(C3CCCC3)Cc3ccccc32)nc2cc(CN)ccc21` [Example 9, 1-[[5-(aminomethyl)-1-isopentyl-benzimidazol-2-yl]methyl]-3-cyclopentyl-4H-quinazolin-2-one] is 1.3 nM; for `CC(C)CCn1c(CN2C(=O)N(C3CC3)C(C)c3ccccc32)nc2cc(C(N)=NO)ccc21` (stereo not shown) [Example 39, 2-[(3-cyclopropyl-4-methyl-2-oxo-4H-quinazolin-1-yl)methyl]-N′-hydroxy-1-isopentyl-benzimidazole-5-carboxamidine] it is 400 nM.
For `CC(C)CCn1c(CN2C(=O)N(C3CC3)Cc3cccnc32)nc2cc(CN)ccc21` [Example 12, 1-[[5-(aminomethyl)-1-isopentyl-benzimidazol-2-yl]methyl]-3-cyclopropyl-4H-pyrido[2,3-d]pyrimidin-2-one], inhibition was half-maximal at 53.1 nM (IC50).
Consider `CC1c2ccccc2N(Cc2nc3cc(C(N)=NO)ccc3n2CCCC(F)(F)F)C(=O)N1C1CC1` (stereo not shown) [Example 44, 2-[(3-cyclopropyl-4-methyl-2-oxo-4H-quinazolin-1-yl)methyl]-N′-hydroxy-1-(4,4,4-trifluorobutyl)benzimidazole-5-carboxamidine], for which the IC50 turned out to be 229 nM.
On the same count and under the same terms, the figure for `CC1(C)c2ccccc2N(Cc2nc3cc(CN)ccc3n2CCCC(F)(F)F)C(=O)N1C1CC1` [Example 30, 1-[[5-(aminomethyl)-1-(4,4,4-trifluorobutyl)benzimidazol-2-yl]methyl]-3-cyclopropyl-4,4-dimethyl-quinazolin-2-one] is 11 nM.
Still for that read-out and setting: the figure for `CC1c2ccccc2N(Cc2nc3cc(CN)ccc3n2CCCC(F)(F)F)C(=O)N1C1CC1` (stereo not shown) [Example 29, 1-[[5-(aminomethyl)-1-(4,4,4-trifluorobutyl)benzimidazol-2-yl]methyl]-3-cyclopropyl-4-methyl-4H-quinazolin-2-one] is 3.8 nM.
`CC(C)CCn1c(CN2C(=O)N(C3CC3)C(C)c3ccccc32)nc2ccccc21` (stereo not shown) [Example 3, 3-cyclopropyl-1-[(1-isopentylbenzimidazol-2-yl)methyl]-4-methyl-4H-quinazolin-2-one] yielded a 50% inhibitory concentration (IC50) of 1300 nM.
On the same count and under the same terms, then `CC(C)CCn1c(CN2C(=O)N(C3CC3)Cc3ccccc32)nc2ccccc21` [Example 1], with 1890 nM.
The same measure, in the same setting: the figure for `CC1(C)c2ccccc2N(Cc2nc3cc(/C(N)=N/O)ccc3n2CCCC(F)(F)F)C(=O)N1C1CC1` [Example 45, 2-[(3-cyclopropyl-4,4-dimethyl-2-oxo-quinazolin-1-yl)methyl]-N′-hydroxy-1-(4,4,4-trifluorobutyl)benzimidazole-5-carboxamidine] is more than 1000 nM; for `N=C(N)c1ccc2c(c1)nc(CN1C(=O)N(C3CC3)Cc3ccccc31)n2CCCC(F)(F)F` [Example 41, 2-[(3-cyclopropyl-2-oxo-4H-quinazolin-1-yl)methyl]-1-(4,4,4-trifluorobutyl)benzimidazole-5-carboxamidine] it is 1.6 nM; for `CCCN1Cc2ccccc2N(Cc2nc3cc(CN)ccc3n2CCC(C)C)C1=O` [Example 6, 1-[[5-(aminomethyl)-1-isopentyl-benzimidazol-2-yl]methyl]-3-propyl-4H-quinazolin-2-one] it is 1.2 nM.
The same measure, in the same setting: the figure for `CC(C)CCn1c(CN2C(=O)N(CCc3ccccc3)Cc3ccccc32)nc2cc(CN)ccc21` [Example 11, 1-[[5-(aminomethyl)-1-isopentyl-benzimidazol-2-yl]methyl]-3-phenethyl-4H-quinazolin-2-one] is 18.8 nM; for `CC(C)CCn1c(CN2C(=O)N(Cc3ccccc3)Cc3ccccc32)nc2cc(CN)ccc21` [Example 10, 1-[[5-(aminomethyl)-1-isopentyl-benzimidazol-2-yl]methyl]-3-benzyl-4H-quinazolin-2-one] it is 15.7 nM; for `CN1Cc2ccccc2N(Cc2nc3cc(CNCCCN)ccc3n2CCCCO)C1=O` [Example 34, 1-[[5-[(3-Aminopropylamino)methyl]-1-(4-hydroxybutyl)benzimidazole-2-yl]methyl]-3-methyl-4H-quinazolin-2-one] it is 84 nM.
The compound `CC1c2ccccc2N(Cc2nc3cc(C(=N)N)ccc3n2CCCC(F)(F)F)C(=O)N1C1CC1` (stereo not shown) [Example 42, 2-[(3-cyclopropyl-4-methyl-2-oxo-4H-quinazolin-1-yl)methyl]-1-(4,4,4-trifluorobutyl)benzimidazole-5-carboxamidine] returned a concentration for half-maximal inhibition (IC50) of 11.8 nM.
Same read-out and setting: then `CSCCN1Cc2ccccc2N(Cc2nc3cc(CN)ccc3n2CCC(C)C)C1=O` [Example 18, 1-[[5-(aminomethyl)-1-isopentyl-benzimidazol-2-yl]methyl]-3-(2-methylsulfanylethyl)-4H-quinazolin-2-one], with 4 nM.
